Patent US20060281818A1, “Method for treating mucosal disorders” (SUCAMPO AG, NORTH CAROLINA STATE UNIVERSITY, priority 2005, published 2006)
Entries after “also recorded” stand apart in the source; their conditions may differ. Marks after values point to notes of the source that are not given here.

Legend:
[1] = tested on: ischemic-injured porcine ileal mucosa; assay: Morphometric assessment of epithelial restitution (histological examination); format: cell-based; details: Indo 5 μM, COMPOUND A 1 μM, mean±SE, n=3
Protocol: (§1) Six to eight-week-old Yorkshire crossbred pigs of either sex were housed individually, and maintained on a commercial pelleted feed. Pigs were held off feed for 24 hours prior to experimental surgery. General anesthesia was induced with xylazine (1.5 mg/kg, IM), ketamine (11 mg/kg, IM), and thiopental (15 mg/kg, IV) and was maintained with intermittent infusion of thiopental (6-8 mg/kg/hr). Pigs were placed on a heating pad and ventilated with 100% O2 via a tracheotomy using a time-cycled ventilator. The jugular vein and carotid artery were cannulated and blood gas analysis was performed to confirm normal pH and partial pressures of CO2 and O2. Lactated Ringers solution was administered intravenously at a maintenance rate of 15 ml/kg/hr. The ileum was approached via ventral midline incision. Ileal segments were delineated by ligating the intestine at 10 cm intervals, and subjected to ischemia by occluding the local mesenteric blood supply for 45 minutes.
Tissues were taken at 0, 60, and 180 minutes for routine histologic evaluation. Tissues were sectioned (5 μm) and stained with hematoxylin and eosin. For each tissue, 3 sections were evaluated. Four well oriented villi and crypts were identified in each section. Villus length was obtained using a micrometer in the eye piece of a light microscope. In addition, the height of the epithelial-covered portion of each villus was measured. The surface area of the villus was calculated using the formula for the surface area of a cylinder. The formula was modified by subtracting the area of the base of the villus, and multiplying by a factor accounting for the variable position at which each villus was cross-sectioned (Gastroenterology 1993; 104:440-471). The percentage of the villous surface area that remained denuded was calculated from the total surface area of the villus and the surface area of the villus covered by epithelium. The percent denuded villous surface area was used as an index of epithelial restitution.
In table 1, values represents means±SE for % villus surface area denuded and Villus height; n=3. Tissues were mammalian ileum subjected to 45 min ischemia in vivo, after which they were mounted in Ussing chambers for monitoring of recovery responses. Tissues were harvested at 0 min, 60 min, and 180 min post-ischemia during the in vitro recovery phase, fixed in 10% buffered formalin, and processed for histological examination according to standard protocols. Indomethacin (Indo) was administered to select tissues a 5 μM, and COMPOUND A was given at 1 μM. Values lacking common superscript.(*,#) differ by P<0.05.

barrier function = details: Am. J. Physiol. Gastrointest. Liver Physiol. 281:G375-81, 2001; cited from earlier work
[2] = tested on: ischemia-injured porcine ileum; assay: Ussing chamber: short circuit current (Isc) and transepithelial electrical resistance (TER); format: cell-based; details: for absolute change in Isc (Δ Isc): mean±SE
Protocol: as §1
Following the 45-minute ischemic period, tissues were harvested from the pig and the mucosa was stripped from the seromuscular layer in oxygenated (95% O2/ 5% CO2) Ringer's solution (mmol/l: Na^+, 154; K+, 6.3; Cl^−, 137; HCO3^−, 24; pH 7.4) containing 5×10^−6 M indomethacin to prevent endogenous PG production during the stripping procedure. Tissues were then mounted in 3.14 cm^2 aperture Ussing chambers. For Ussing chamber experiments, ileal tissues from one pig were mounted on multiple Ussing chambers and subjected to different in vitro treatments. Tissues were bathed on the serosal and mucosal sides with 10 ml Ringer's solution. The serosal bathing solution contained 10 mM glucose, and was osmotically balanced on the mucosal side with 10 mM mannitol. Bathing solutions were oxygenated (95% O2/5% CO2) and circulated in water-jacketed reservoirs. The spontaneous potential difference (PD) was measured using Ringer-agar bridges connected to calomel electrodes, and the PD was short-circuited through Ag—AgCl electrodes using a voltage clamp that corrected for fluid resistance. Transepithelial electrical resistance (Ω.cm^2) was calculated from the spontaneous PD and short-circuit current (Isc). If the spontaneous PD was between −1.0 and 1.0 mV, tissues were current clamped at ±100 μA for 5 seconds and the PD recorded. Short-circuit current and PD were recorded at 15-minute intervals over a 4-hour experiment.
After tissues were mounted on Ussing chambers, tissues were allowed to acclimate for a period of 30 minutes to achieve stable baseline measurements. Tissues were then treated with varying doses of COMPOUND A (13,14-dihydro-15-keto-16,16-difluoro-PGE1) (0.01 μM, 0.1 μM, and 1 μM) by adding the compound to the mucosal bathing solution (t=30 min).
Data were reported as means±SE. All data were analyzed by using an ANOVA for repeated measures, except where the peak response was analyzed by using a standard one-way ANOVA (Sigmastat, Jandel Scientific, San Rafael, Calif.). A Tukey's test was used to determine differences between treatments following ANOVA.

[3] = tested on: ischemia-injured porcine ileum; assay: Mucosal-to-serosal 3H-mannitol flux in Ussing chamber; format: cell-based; details: 1 μM; n=4; P<0.05
Protocol: as §1, with “Lactated Ringers solution was administered intravenously at a maintenance rate of 15 ml/kg/hr. The ileum was approached via ventral midline incision. Ileal segments were delineated by ligating the intestine at 10 cm intervals, and subjected to ischemia by occluding the local mesenteric blood supply for 45 minutes.” left out
Following the 45-minute ischemic period, tissues were harvested from the pig and the mucosa was stripped from the seromuscular layer in oxygenated (95% O2/ 5% CO2) Ringer's solution (mmol/l: Na^+, 154; K+, 6.3; Cl^−, 137; HCO3^−, 24; pH 7.4) containing 5×10^−6 M indomethacin to prevent endogenous PG production during the stripping procedure. […] The spontaneous potential difference (PD) was measured using Ringer-agar bridges connected to calomel electrodes, and the PD was short-circuited through Ag—AgCl electrodes using a voltage clamp that corrected for fluid resistance. Transepithelial electrical resistance (Ω.cm^2) was calculated from the spontaneous PD and short-circuit current (Isc). […]

[4] = tested on: ischemia-injured porcine ascending colon; assay: Ussing chamber: short circuit current and TER in colon; format: cell-based; details: ischemic porcine ascending colon
Description: (§2) According to the same procedure described in Example 1 except for using colon instead of ileum, recovery of mucosal barrier function in ischemic condition by the COMPOUND A was investigated.
(§3) A) Change in short circuit current response to COMPOUND A in ischemia-injured porcine ascending colon, B) Trans epithelial electrical resistance (TER) in response to COMPOUND A in ischemia-injured porcine ascending colon and C) Serosal to mucosal ^3H-mannitol fluxes in response to COMPOUND A in ischemia-injured porcine ascending colon were shown in FIGS. 4 to 6 respectively.

[5] = tested on: ischemia-injured porcine ascending colon; assay: Serosal to mucosal 3H-mannitol fluxes in colon; format: cell-based; details: ischemic porcine ascending colon, FIG. 6
Description: as §2, §3

mammary carcinoma = assay: Incidence of mammary carcinoma, 104-week oral gavage study; format: in vivo; details: 104 weeks, female rats
Protocol: Female Crl:CD(SD)IGS BR VAF/Plus rats were assigned to 4 study groups (65/group). Groups 2 through 4 received 20, 100, or 400 μg/kg/day of COMPOUND A, respectively, by oral gavage for 104 weeks. The control group (Group 1) received 10 the vehicle, a 1% aqueous solution of Polysorbate 80. The dose volume was 5 mL/kg/day for all groups. When unscheduled death of animal occurred during the study period, a necropsy was performed on the animal. After 104 weeks of treatment, all surviving animals were sacrificed and necropsied. Each rat was evaluated microscopically for the occurrence of mammary carcinoma.

[6] = 1 μM applied to mucosal side, indomethacin 5×10^−6 M Ringer's, P<0.01

Molecule: COc1ccc2c(c1)c(CC(=O)O)c(C)n2C(=O)c1ccc(Cl)cc1 [Indo, Indomethacin, reference compound]
- Epithelial surface area denuded (%) ([1]; recovery time 60 min): 6.6 ± 2.6* %
- Villus height (mm) ([1]; recovery time 60 min): 0.16 ± 0.01* mm
- Epithelial surface area denuded (%) ([1]; recovery time 180 min): 0 ± 0** %
- Villus height (mm) ([1]; recovery time 180 min): 0.14 ± 0.03* mm

Molecule: deoxy-PGE1
- effects on barrier function (result in words) (barrier function): had not effects

Molecule: CCCCC(F)(F)C(=O)CCC1C(O)CC(=O)C1CCCCCCC(=O)O (centres unmarked) [COMPOUND A, 13,14-dihydro-15-keto-16,16-difluoro-PGE1]
- TER (result in words) ([2]; 0.01 μM, 0.1 μM and 1 μM applied to mucosal side): dose-dependent increases in TER
- absolute change in Isc (Δ Isc) ([2]; 0.01 μM): 2±0.8
- transepithelial electrical resistance (TER) (FIG. 1 legend, words) ([2]; 0.1 μM and 1 μM doses, added after 30-min equilibration, n=6): marked elevations in transepithelial electrical resistance (TER)
- Isc, electrogenic Cl− secretion (result in words) ([2]; 0.1 μM and 1 μM, dose-dependent): sharp and significant (P<0.05) peaks in Isc
- absolute change in Isc (Δ Isc) ([2]; 0.1 μM): 16±4.5
- increase in TER [2, 6]: 2 fold
- ΔTER [2, 6]: 26 Ω
- absolute change in Isc (Δ Isc) ([2]; 1 μM): 29±5.1
- Cl− secretion indicated by Isc and ΔIsc (FIG. 2 legend, words) ([2]; increasing doses, n=6): Significant (P<0.05) increases in Cl^− secretion
- 3H-mannitol mucosal-to-serosal flux (result in words) [3]: return of ^3H-mannitol flux to non-ischemic control levels; also recorded: reduced ^3H-mannitol mucosal-to-serosal fluxes to non-ischemic control levels
- Epithelial surface area denuded (%) ([1]; recovery time 60 min): 4.2 ± 2.5* %
- Villus height (mm) ([1]; recovery time 60 min): 0.21 ± 0.02* mm
- Epithelial surface area denuded (%) ([1]; recovery time 180 min): 0 ± 0** %
- Villus height (mm) ([1]; recovery time 180 min): 0.20 ± 0.01* mm
- Isc (result in words) ([4]; FIG. 4): increased Isc
- TER (result in words) ([4]; FIG. 5): increased
- serosal-to mucosal fluxes of 3H-mannitol (result in words) [5]: recuded serosal-to mucosal fluxes of ^3H-mannitol
- Number of animals with mammary carcinoma (mammary carcinoma; 20 μg/kg/day oral gavage, 65 examined (control 12 of 65)): 6
- Number of animals with mammary carcinoma (mammary carcinoma; 100 μg/kg/day oral gavage, 65 examined (control 12 of 65)): 5
- Number of animals with mammary carcinoma (mammary carcinoma; 400 μg/kg/day oral gavage, 63 examined (control 12 of 65)): 4
- incidence of mammary carcinoma (result in words) (mammary carcinoma; 20, 100 or 400 μg/kg/day oral gavage): reduced the incidence of mammary carcinoma
